Reference: patent publication US11168347B2, “Digital quantification of DNA replication and/or chromosome segregation based determination of antimicrobial susceptibility” (CALIFORNIA INSTITUTE OF TECHNOLOGY, priority 2016, dated 2021)
Converted amounts (≈) assume the structure as drawn.

System: E. coli strain isolated from a patient with a urinary tract infection
Experiment: microbe, parasite or virus in culture
Settings: Escherichia coli, read-out: minimum inhibitory concentration

`O=C1CN(/N=C/c2ccc([N+](=O)[O-])o2)C(=O)N1` [nit, Nitrofurantoin] showed an MIC of 64 µg/mL (≈ 269 µM).
